Entries after “also recorded” stand apart in the source; their conditions may differ. Where two headings read alike, the source gives them in different places.
Tested on: LdtMt2 constructs with single amino acid mutations (Tyr318, His336, His352 and Cys354)
Format: binding, M. tuberculosis

Structure (SMILES)	adduct formation with mutants (UPLC-MS, any of the mutant proteins)	ITC binding to mutants	adduct formation with mutants
C[C@@H](O)[C@H]1C(=O)N2C(C(=O)[O-])=C(SC3Cn4cnc[n+]4C3)[C@H](C)[C@H]12 (some centres unmarked) [biapenem]	no adducts could be detected	–	–
C[C@@H](O)[C@H]1C(=O)N2C(C(=O)O)=C([C@H]3CCCO3)S[C@H]12 [faropenem]	–	loss of binding	failed to produce adducts; also recorded: did produce stable adducts
C[C@@H](O)[C@H]1C(=O)N2C(C(=O)O)=C(SC3CN(C4=NCCS4)C3)[C@H](C)[C@H]12 [tebipenem]	–	loss of binding	failed to produce adducts; also recorded: did produce stable adducts
